# Several values for one entry are separate records, joined by “and”; a condition that tells them apart may be missing. Identical values can stand only once.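 Where inhibition never reached the appropriate level, the endpoint shown equals the highest concentration tested. Otherwise, values were interpolated linearly from a five-concentration, 48-hour dose response in 96-well plates. Abbreviation: GI50, concentration required for 50% inhibition of growth.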 Activity calls are given as the source filed them. No stated cut-off is given here; in the data, active = GI50 up to about 1.1 µM and inactive = higher.
# Columns and labels:
# Experiment in all cases: NCI tumour cell line growth inhibition, 48 h
# 786-0 = system: 786-0
# A498 = system: A498
# ACHN = system: ACHN
# BT-549 = system: BT-549
# CAKI-1 = system: CAKI-1
# EKVX = system: EKVX
# HCC 2998 = system: HCC 2998
# HCT-116 = system: HCT-116
# HCT-15 = system: HCT-15
# HOP-62 = system: HOP-62
# HOP-92 = system: HOP-92
# Hs-578T = system: Hs-578T
# LOX IMVI = system: LOX IMVI
# MCF7 = system: MCF7
# MDA-MB-231 = system: MDA-MB-231
# Malme-3M = system: Malme-3M
# NCI-H226 = system: NCI-H226
# NCI-H23 = system: NCI-H23
# NCI-H460 = system: NCI-H460
# NCI-H522 = system: NCI-H522
# NCI/ADR-RES = system: NCI/ADR-RES
# OVCAR-4 = system: OVCAR-4
# OVCAR-8 = system: OVCAR-8
# PC-3 = system: PC-3
# RPMI-8226 = system: RPMI-8226
# RXF 393 = system: RXF 393
# SF-268 = system: SF-268
# SF-295 = system: SF-295
# SF-539 = system: SF-539
# SK-MEL-2 = system: SK-MEL-2
# SK-MEL-5 = system: SK-MEL-5
# SK-OV-3 = system: SK-OV-3
# SN12C = system: SN12C
# SNB-19 = system: SNB-19
# SNB-75 = system: SNB-75
# SW-620 = system: SW-620
# T47D = system: T47D
# U-251 = system: U-251
# UACC-257 = system: UACC-257
# UACC-62 = system: UACC-62
# A549 = system: A549
# CCRF-CEM = system: CCRF-CEM
# COLO 205 = system: COLO 205
# DU-145 = system: DU-145
# HT-29 = system: HT-29
# IGROV-1 = system: IGROV-1
# K562 = system: K562
# KM12 = system: KM12
# M14 = system: M14
# MDA-MB-435 = system: MDA-MB-435
# MOLT-4 = system: MOLT-4
# OVCAR-3 = system: OVCAR-3
# OVCAR-5 = system: OVCAR-5
# SK-MEL-28 = system: SK-MEL-28
# TK-10 = system: TK-10
# UO-31 = system: UO-31
# HL-60 = system: HL-60
# MDA-N = system: MDA-N
# SR = system: SR
compound,measurement,setting,value
COc1ccc(-c2c(C#N)c(N)n(C3OC(COC(C)=O)C(OC(C)=O)C(OC(C)=O)C3OC(C)=O)c(=S)c2C#N)cc1 (configuration not stated),GI50,786-0,27.7 µM (inactive) and 28.6 µM (inactive)
same,GI50,A498,33.7 µM (inactive) and 28.6 µM (inactive)
same,GI50,ACHN,50.8 µM (inactive) and 33.6 µM (inactive)
same,GI50,BT-549,26.1 µM (inactive) and 26.7 µM (inactive)
same,GI50,CAKI-1,34.6 µM (inactive) and 53.1 µM (inactive)
same,GI50,EKVX,26.5 µM (inactive) and 30 µM (inactive)
same,GI50,HCC 2998,30.3 µM (inactive) and 18.2 µM (inactive)
same,GI50,HCT-116,55.5 µM (inactive) and 39.4 µM (inactive)
same,GI50,HCT-15,50.2 µM
same,GI50,HOP-62,28.6 µM (inactive) and 19.8 µM (inactive)
same,GI50,HOP-92,17.1 µM (inactive) and 19.2 µM (inactive)
same,GI50,Hs-578T,36.6 µM (inactive) and 27.4 µM (inactive)
same,GI50,LOX IMVI,34.3 µM (inactive) and 32.9 µM (inactive)
same,GI50,MCF7,29 µM (inactive) and 22.2 µM (inactive)
same,GI50,MDA-MB-231,27.9 µM (inactive) and 29.9 µM (inactive)
same,GI50,Malme-3M,43.9 µM (inactive) and 23.9 µM (inactive)
same,GI50,NCI-H226,50.1 µM (inactive) and 91 µM (inactive)
same,GI50,NCI-H23,44 µM (inactive) and 58.6 µM (inactive)
same,GI50,NCI-H460,47 µM (inactive) and 61.4 µM (inactive)
same,GI50,NCI-H522,23.3 µM (inactive) and 25.6 µM (inactive)
same,GI50,NCI/ADR-RES,> 100 µM (inactive) and 75.2 µM (inactive)
same,GI50,OVCAR-4,24.4 µM (inactive) and 23.4 µM (inactive)
same,GI50,OVCAR-8,34.2 µM (inactive) and 21.3 µM (inactive)
same,GI50,PC-3,35.8 µM (inactive) and 37.8 µM (inactive)
same,GI50,RPMI-8226,26.1 µM (inactive) and 30.8 µM (inactive)
same,GI50,RXF 393,29.5 µM (inactive) and 24.5 µM (inactive)
same,GI50,SF-268,21.4 µM (inactive) and 25.5 µM (inactive)
same,GI50,SF-295,40.5 µM (inactive) and 35.7 µM (inactive)
same,GI50,SF-539,22.9 µM (inactive) and 40.1 µM (inactive)
same,GI50,SK-MEL-2,22.8 µM (inactive) and 24.2 µM (inactive)
same,GI50,SK-MEL-5,23.4 µM (inactive) and 21.7 µM (inactive)
same,GI50,SK-OV-3,29.4 µM (inactive) and 26.2 µM (inactive)
same,GI50,SN12C,76.4 µM (inactive) and 43.3 µM (inactive)
same,GI50,SNB-19,40 µM (inactive) and 55.8 µM (inactive)
same,GI50,SNB-75,17.5 µM (inactive) and 15.6 µM (inactive)
same,GI50,SW-620,> 100 µM (inactive)
same,GI50,T47D,18.6 µM (inactive) and 28.3 µM (inactive)
same,GI50,U-251,46.5 µM (inactive) and 31.7 µM (inactive)
same,GI50,UACC-257,43.1 µM (inactive) and 23.7 µM (inactive)
same,GI50,UACC-62,20.8 µM (inactive) and 20 µM (inactive)
CC(=O)O[C@@H]1CC[C@@]2(C)C(CC[C@H]3[C@@H]4CC[C@H]([C@H](C)CCc5nc6cc(C)ccc6[nH]5)[C@@]4(C)CC[C@@H]32)C1 (some centres not stated),GI50,786-0,8.69 µM (inactive)
same,GI50,A498,92.7 µM (inactive)
same,GI50,A549,43.4 µM (inactive)
same,GI50,ACHN,99.3 µM (inactive)
same,GI50,BT-549,29.8 µM (inactive)
same,GI50,CAKI-1,> 100 µM (inactive)
same,GI50,CCRF-CEM,3.44 µM (inactive)
same,GI50,COLO 205,24.4 µM (inactive)
same,GI50,DU-145,45.7 µM (inactive)
same,GI50,EKVX,9.64 µM (inactive)
same,GI50,HCC 2998,71.3 µM (inactive)
same,GI50,HCT-116,> 100 µM (inactive)
same,GI50,HCT-15,46.6 µM
same,GI50,HOP-62,13.1 µM (inactive)
same,GI50,HOP-92,69.5 µM (inactive)
same,GI50,HT-29,12.4 µM (inactive)
same,GI50,Hs-578T,13.9 µM (inactive)
same,GI50,IGROV-1,4.34 µM (inactive)
same,GI50,K562,12.6 µM (inactive)
same,GI50,KM12,12.7 µM (inactive)
same,GI50,LOX IMVI,1.66 µM (inactive)
same,GI50,M14,16.1 µM (inactive)
same,GI50,MCF7,38.4 µM (inactive)
same,GI50,MDA-MB-231,18 µM (inactive)
same,GI50,MDA-MB-435,> 100 µM (inactive)
same,GI50,MOLT-4,28.1 µM (inactive)
same,GI50,NCI-H226,9.38 µM (inactive)
same,GI50,NCI-H23,17.3 µM (inactive)
same,GI50,NCI-H522,16.7 µM (inactive)
same,GI50,NCI/ADR-RES,97.3 µM (inactive)
same,GI50,OVCAR-3,20.9 µM (inactive)
same,GI50,OVCAR-4,9.77 µM (inactive)
same,GI50,OVCAR-5,> 100 µM (inactive)
same,GI50,OVCAR-8,11 µM (inactive)
same,GI50,PC-3,9.53 µM (inactive)
same,GI50,RPMI-8226,8.89 µM (inactive)
same,GI50,RXF 393,6.81 µM (inactive)
same,GI50,SF-268,> 100 µM (inactive)
same,GI50,SF-295,12 µM (inactive)
same,GI50,SF-539,> 100 µM (inactive)
same,GI50,SK-MEL-28,> 100 µM (inactive)
same,GI50,SK-MEL-2,31 µM (inactive)
same,GI50,SK-MEL-5,25.9 µM (inactive)
same,GI50,SK-OV-3,> 100 µM (inactive)
same,GI50,SN12C,41.5 µM (inactive)
same,GI50,SNB-19,> 100 µM (inactive)
same,GI50,SNB-75,6.04 µM (inactive)
same,GI50,SW-620,> 100 µM (inactive)
same,GI50,T47D,35.2 nM (active)
same,GI50,TK-10,> 100 µM (inactive)
same,GI50,U-251,18.2 µM (inactive)
same,GI50,UACC-257,38.7 µM (inactive)
same,GI50,UACC-62,11.5 µM (inactive)
same,GI50,UO-31,6.38 µM (inactive)
CCC(C)N1CN(c2ccccc2)C2(CCN(CC3COc4ccccc4O3)CC2)C1=O (configuration not stated),GI50,786-0,18 µM (inactive)
same,GI50,A549,28.7 µM (inactive)
same,GI50,ACHN,33.5 µM (inactive)
same,GI50,BT-549,14.3 µM (inactive)
same,GI50,CAKI-1,16.9 µM (inactive)
same,GI50,CCRF-CEM,19.9 µM (inactive)
same,GI50,COLO 205,17.7 µM (inactive)
same,GI50,DU-145,21.6 µM (inactive)
same,GI50,EKVX,14.9 µM (inactive)
same,GI50,HCC 2998,18.2 µM (inactive)
same,GI50,HCT-116,15.9 µM (inactive)
same,GI50,HCT-15,19.7 µM
same,GI50,HL-60,14.4 µM (inactive)
same,GI50,HOP-62,19.4 µM (inactive)
same,GI50,HT-29,13.1 µM (inactive)
same,GI50,IGROV-1,42.2 µM (inactive)
same,GI50,K562,16.5 µM (inactive)
same,GI50,KM12,18.1 µM (inactive)
same,GI50,LOX IMVI,23.4 µM (inactive)
same,GI50,M14,20.2 µM (inactive)
same,GI50,MCF7,18.9 µM (inactive)
same,GI50,MDA-MB-231,> 100 µM (inactive)
same,GI50,MDA-MB-435,19.2 µM (inactive)
same,GI50,MDA-N,25.6 µM (inactive)
same,GI50,MOLT-4,16.1 µM (inactive)
same,GI50,Malme-3M,18.5 µM (inactive)
same,GI50,NCI-H226,21 µM (inactive)
same,GI50,NCI-H23,22.9 µM (inactive)
same,GI50,NCI-H522,22.8 µM (inactive)
same,GI50,NCI/ADR-RES,17.8 µM (inactive)
same,GI50,OVCAR-3,15.7 µM (inactive)
same,GI50,OVCAR-5,> 10 µM (inactive)
same,GI50,OVCAR-8,26.2 µM (inactive)
same,GI50,PC-3,26.6 µM (inactive)
same,GI50,RPMI-8226,13.3 µM (inactive)
same,GI50,RXF 393,20.9 µM (inactive)
same,GI50,SF-268,48 µM (inactive)
same,GI50,SF-295,19 µM (inactive)
same,GI50,SF-539,17.8 µM (inactive)
same,GI50,SK-MEL-28,39.7 µM (inactive)
same,GI50,SK-MEL-5,14.7 µM (inactive)
same,GI50,SK-OV-3,33.6 µM (inactive)
same,GI50,SN12C,27.7 µM (inactive)
same,GI50,SNB-19,23.7 µM (inactive)
same,GI50,SNB-75,36.9 µM (inactive)
same,GI50,SR,17.9 µM (inactive)
same,GI50,SW-620,22.3 µM (inactive)
same,GI50,T47D,16000 nM (inactive)
same,GI50,TK-10,27.5 µM (inactive)
same,GI50,U-251,17.7 µM (inactive)
same,GI50,UACC-257,23.9 µM (inactive)
same,GI50,UACC-62,19 µM (inactive)
same,GI50,UO-31,10.8 µM (inactive)
